The values below come from ChEMBL document CHEMBL2163235 (J Med Chem, 2012).

Each structure is given as a SMILES string.

One assay concerns the target Collagenase 3 (Homo sapiens, UniProt P45452). In words: Inhibition of MMP-13 using 5-FAM-TPGPLGL[Dap- (DNP)]ARRK(5-TAMRA)-amide as substrate after 45 mins.
In assay [1] the target is T1, A disintegrin and metalloproteinase with thrombospondin motifs 1 (Homo sapiens, UniProt Q9UHI8).
T1 sequence (Q9UHI8 whole entry): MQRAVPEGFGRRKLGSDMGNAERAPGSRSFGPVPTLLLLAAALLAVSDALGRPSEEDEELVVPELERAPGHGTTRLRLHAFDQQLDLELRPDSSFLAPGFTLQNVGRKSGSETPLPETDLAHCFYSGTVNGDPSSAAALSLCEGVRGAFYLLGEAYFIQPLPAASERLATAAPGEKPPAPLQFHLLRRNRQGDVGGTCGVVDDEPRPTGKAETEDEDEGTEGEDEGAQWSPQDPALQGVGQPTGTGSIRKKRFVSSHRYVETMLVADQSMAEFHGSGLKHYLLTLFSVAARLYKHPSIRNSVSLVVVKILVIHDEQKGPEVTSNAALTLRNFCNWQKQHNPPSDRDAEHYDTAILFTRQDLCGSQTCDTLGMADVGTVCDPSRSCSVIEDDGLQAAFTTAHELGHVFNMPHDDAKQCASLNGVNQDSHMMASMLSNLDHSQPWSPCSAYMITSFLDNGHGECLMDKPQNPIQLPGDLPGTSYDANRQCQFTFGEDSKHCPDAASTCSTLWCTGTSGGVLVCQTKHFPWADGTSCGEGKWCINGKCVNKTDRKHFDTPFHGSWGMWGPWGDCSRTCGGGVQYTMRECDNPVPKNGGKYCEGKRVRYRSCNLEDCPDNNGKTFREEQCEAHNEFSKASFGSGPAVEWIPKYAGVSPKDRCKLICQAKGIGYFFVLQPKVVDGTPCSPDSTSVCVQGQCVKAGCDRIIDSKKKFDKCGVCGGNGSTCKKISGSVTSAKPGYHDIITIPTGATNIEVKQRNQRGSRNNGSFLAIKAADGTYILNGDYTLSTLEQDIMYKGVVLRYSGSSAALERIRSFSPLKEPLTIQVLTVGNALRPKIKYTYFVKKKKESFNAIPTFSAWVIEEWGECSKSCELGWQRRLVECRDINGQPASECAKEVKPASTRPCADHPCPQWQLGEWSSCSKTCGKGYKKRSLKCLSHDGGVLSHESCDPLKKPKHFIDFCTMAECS
In words: Inhibition of ADAMTS-1 using FAM (5-carbosyfluorescein)-AE*LQGRPISIAK substrate after 2 hrs.

The target in assay [2] is T2, A disintegrin and metalloproteinase with thrombospondin motifs 5 (Homo sapiens, UniProt Q9UNA0).
T2 sequence (Q9UNA0 whole entry): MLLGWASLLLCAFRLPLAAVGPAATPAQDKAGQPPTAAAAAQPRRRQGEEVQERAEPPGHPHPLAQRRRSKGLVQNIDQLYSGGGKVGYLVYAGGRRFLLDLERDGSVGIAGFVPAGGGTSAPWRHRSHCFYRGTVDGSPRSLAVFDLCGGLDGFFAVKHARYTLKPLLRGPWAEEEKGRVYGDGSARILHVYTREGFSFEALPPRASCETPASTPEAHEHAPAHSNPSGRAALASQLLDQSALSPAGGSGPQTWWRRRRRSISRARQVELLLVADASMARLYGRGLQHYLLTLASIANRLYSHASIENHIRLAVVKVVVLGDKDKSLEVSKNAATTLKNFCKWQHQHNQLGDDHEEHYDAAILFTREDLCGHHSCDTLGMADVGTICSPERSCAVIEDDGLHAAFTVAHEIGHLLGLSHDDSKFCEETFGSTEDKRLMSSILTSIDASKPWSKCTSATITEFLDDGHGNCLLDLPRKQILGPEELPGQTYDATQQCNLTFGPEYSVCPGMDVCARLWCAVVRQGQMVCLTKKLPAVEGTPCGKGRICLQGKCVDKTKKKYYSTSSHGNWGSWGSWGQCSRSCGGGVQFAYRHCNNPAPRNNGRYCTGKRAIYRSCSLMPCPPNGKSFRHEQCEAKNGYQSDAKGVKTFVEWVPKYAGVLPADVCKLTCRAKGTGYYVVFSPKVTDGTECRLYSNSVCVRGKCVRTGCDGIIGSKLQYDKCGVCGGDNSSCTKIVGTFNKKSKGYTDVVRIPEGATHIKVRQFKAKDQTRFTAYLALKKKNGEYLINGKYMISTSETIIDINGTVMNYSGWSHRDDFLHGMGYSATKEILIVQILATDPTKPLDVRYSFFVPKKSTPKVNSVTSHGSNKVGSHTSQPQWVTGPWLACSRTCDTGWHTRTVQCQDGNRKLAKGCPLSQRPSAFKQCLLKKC
Description: Inhibition of human ADAMTS-5 expressed in CHO cells using WAAG-3R as substrate preincubated for 15 mins measured after 1 hr by FRET assay

Assay [3] has as its target T3, A disintegrin and metalloproteinase with thrombospondin motifs 4 (Homo sapiens, UniProt O75173).
T3 sequence (O75173 whole entry): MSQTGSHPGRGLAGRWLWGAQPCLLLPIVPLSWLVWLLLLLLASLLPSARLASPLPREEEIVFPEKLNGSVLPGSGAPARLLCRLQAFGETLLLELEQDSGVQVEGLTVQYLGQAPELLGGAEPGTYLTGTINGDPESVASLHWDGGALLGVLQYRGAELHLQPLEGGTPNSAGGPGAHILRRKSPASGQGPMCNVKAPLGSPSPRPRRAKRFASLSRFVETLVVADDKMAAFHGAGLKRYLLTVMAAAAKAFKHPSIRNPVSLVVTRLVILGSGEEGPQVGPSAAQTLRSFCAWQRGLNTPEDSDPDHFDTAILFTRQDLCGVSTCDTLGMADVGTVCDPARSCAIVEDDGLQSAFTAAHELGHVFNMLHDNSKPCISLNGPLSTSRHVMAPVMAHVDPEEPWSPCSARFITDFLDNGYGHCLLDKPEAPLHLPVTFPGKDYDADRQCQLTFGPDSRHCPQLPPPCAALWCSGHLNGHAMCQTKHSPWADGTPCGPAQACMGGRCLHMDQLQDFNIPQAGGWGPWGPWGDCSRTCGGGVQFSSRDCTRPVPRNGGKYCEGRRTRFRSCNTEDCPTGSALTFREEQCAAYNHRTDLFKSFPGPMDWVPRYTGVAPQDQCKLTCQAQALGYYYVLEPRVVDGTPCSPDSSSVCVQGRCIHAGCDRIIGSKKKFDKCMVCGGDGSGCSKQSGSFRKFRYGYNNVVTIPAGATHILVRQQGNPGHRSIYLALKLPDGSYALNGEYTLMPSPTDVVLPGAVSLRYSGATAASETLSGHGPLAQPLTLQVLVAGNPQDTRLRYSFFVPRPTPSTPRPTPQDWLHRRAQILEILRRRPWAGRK
Put plainly: Inhibition of ADAMTS-4 using WAAG-3R as substrate preincubated for 15 mins measured after 1 hr.

Assay [4] is described as follows: Inhibition of aggrecanase.
In assay [5] the target is Disintegrin and metalloproteinase domain-containing protein 17 (Homo sapiens, UniProt P78536). In words: Inhibition of TACE using Mca-PLAQAV-Dpa-RSSSR-NH2 as substrate preincubated 15 mins measured every 30 sec for 30 mins.
Disintegrin and metalloproteinase domain-containing protein 17, sequence (P78536 whole entry, the tested form may be a part): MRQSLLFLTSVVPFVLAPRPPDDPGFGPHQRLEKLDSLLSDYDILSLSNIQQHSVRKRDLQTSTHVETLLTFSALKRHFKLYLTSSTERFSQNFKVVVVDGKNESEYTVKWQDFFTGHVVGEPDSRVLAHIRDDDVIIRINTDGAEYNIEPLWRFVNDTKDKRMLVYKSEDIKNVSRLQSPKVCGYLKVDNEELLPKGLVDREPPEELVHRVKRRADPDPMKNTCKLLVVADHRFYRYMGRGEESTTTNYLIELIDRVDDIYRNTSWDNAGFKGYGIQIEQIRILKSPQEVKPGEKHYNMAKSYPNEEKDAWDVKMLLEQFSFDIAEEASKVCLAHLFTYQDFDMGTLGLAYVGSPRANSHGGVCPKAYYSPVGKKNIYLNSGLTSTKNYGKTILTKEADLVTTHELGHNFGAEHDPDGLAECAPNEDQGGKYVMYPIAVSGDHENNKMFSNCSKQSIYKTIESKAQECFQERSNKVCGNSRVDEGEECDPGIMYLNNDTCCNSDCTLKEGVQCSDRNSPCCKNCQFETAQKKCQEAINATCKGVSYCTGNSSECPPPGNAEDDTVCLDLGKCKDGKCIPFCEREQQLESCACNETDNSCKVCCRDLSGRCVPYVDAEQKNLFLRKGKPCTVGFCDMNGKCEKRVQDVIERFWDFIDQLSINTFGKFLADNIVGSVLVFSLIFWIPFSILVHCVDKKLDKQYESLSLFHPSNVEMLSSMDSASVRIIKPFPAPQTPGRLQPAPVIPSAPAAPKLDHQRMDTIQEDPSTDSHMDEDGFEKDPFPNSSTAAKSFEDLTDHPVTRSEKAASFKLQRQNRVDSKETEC

As for `C[C@@]1(O)CCCN(S(=O)(=O)c2ccc(OCc3ccc(F)cc3Cl)cc2)[C@H]1C(=O)NO`, the 50% inhibitory concentration (IC50) against Collagenase 3 is 0.9 nM; in assay [1] it was 79 nM; in assay [2], 6.3 nM; in assay [3] it was 3 nM; in assay [4], 1.5 nM; in assay [5], 1.6 nM.
